In the NIST ThermoML archive (doi:10.1016/j.jct.2019.01.014):
“And” between values parts separate entries of the source, which are not always exact repeats. Equal values may be shown once.

Tests used:
[1] = Crystal, Calculated from knudsen effusion weight loss
[2] = molar enthalpy of vaporization or sublimation; conditions: Crystal, Static calorimetry

O=C1CCCCCN1 [1-aza-2-cycloheptanone]
Conditions | molar enthalpy [kcal/mol] | vapor or sublimation pressure
[1], 293.7 K | – | 0.0001506 kPa and 0.0001518 kPa and 0.0001508 kPa
[1], 295.7 K | – | 0.0001889 kPa and 0.000183 kPa and 0.000182 kPa
[1], 296.6 K | – | 0.0002196 kPa and 0.0002191 kPa and 0.0002211 kPa
[1], 298.19 K | – | 0.0002627 kPa and 0.0002587 kPa and 0.0002716 kPa
[1], 299.67 K | – | 0.0003254 kPa and 0.0003117 kPa and 0.0003173 kPa
[1], 301.1 K | – | 0.0003753 kPa and 0.0003757 kPa and 0.0003791 kPa
[1], 302.69 K | – | 0.0004428 kPa and 0.0004363 kPa and 0.0004403 kPa
[1], 304.15 K | – | 0.0005432 kPa and 0.0005228 kPa and 0.0005341 kPa
[1], 305.59 K | – | 0.0006305 kPa and 0.0006272 kPa and 0.0006374 kPa
[1], 307.18 K | – | 0.0007318 kPa and 0.0007265 kPa and 0.0007404 kPa
[1], 308.66 K | – | 0.0008828 kPa and 0.0009064 kPa and 0.0008695 kPa
[1], 310.1 K | – | 0.001048 kPa and 0.001045 kPa and 0.001038 kPa
[2], 350.03 K | 20.9 | –

S=C1CCCCCN1 [azepane-2-thione]
Conditions | molar enthalpy [kcal/mol] | vapor or sublimation pressure
[1], 318.18 K | – | 9.46e-05 kPa and 9.18e-05 kPa and 9.11e-05 kPa
[1], 320.16 K | – | 0.0001201 kPa and 0.0001211 kPa and 0.0001173 kPa
[1], 322.08 K | – | 0.0001485 kPa and 0.0001484 kPa and 0.0001469 kPa
[1], 324.2 K | – | 0.0001813 kPa and 0.0001821 kPa and 0.0001901 kPa
[1], 326.15 K | – | 0.0002346 kPa and 0.0002296 kPa and 0.0002407 kPa
[1], 328.08 K | – | 0.0002879 kPa and 0.0002891 kPa and 0.0002869 kPa
[1], 330.18 K | – | 0.0003569 kPa and 0.0003533 kPa and 0.0003704 kPa
[1], 332.12 K | – | 0.0004537 kPa and 0.0004424 kPa and 0.0004677 kPa
[1], 334.07 K | – | 0.0005566 kPa and 0.0005557 kPa and 0.0005502 kPa
[1], 336.18 K | – | 0.0006862 kPa and 0.0006759 kPa and 0.0007079 kPa
[1], 338.15 K | – | 0.000897 kPa and 0.0008658 kPa and 0.0008434 kPa
[1], 340.08 K | – | 0.001048 kPa and 0.001057 kPa and 0.001058 kPa
[2], 386.11 K | 23.5 | –
